In the assay the target is Beta-3 Adrenergic Receptor (Homo sapiens (Human), UniProt P13945). Description: Homogeneous Time-Resolved Fluorescence (HTRF) cAMP antagonist assay, IC50 determination. The class given is cell-based. As to conditions: CHO-K1 cells stably expressing recombinant receptor, isoproterenol at EC90. An outline of the steps:
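In this functional readout, recombinant CHO-K1 cells received compound, then isoproterenol at its EC90. After 1 h at room temperature, cAMP levels were determined by HTRF using an on-plate standard curve, and IC50 values were fitted.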
(TR-FRET usually uses a lanthanide donor and a delayed reading to cut background.)
Chain of Beta-3 Adrenergic Receptor (P13945 whole entry, species assumed): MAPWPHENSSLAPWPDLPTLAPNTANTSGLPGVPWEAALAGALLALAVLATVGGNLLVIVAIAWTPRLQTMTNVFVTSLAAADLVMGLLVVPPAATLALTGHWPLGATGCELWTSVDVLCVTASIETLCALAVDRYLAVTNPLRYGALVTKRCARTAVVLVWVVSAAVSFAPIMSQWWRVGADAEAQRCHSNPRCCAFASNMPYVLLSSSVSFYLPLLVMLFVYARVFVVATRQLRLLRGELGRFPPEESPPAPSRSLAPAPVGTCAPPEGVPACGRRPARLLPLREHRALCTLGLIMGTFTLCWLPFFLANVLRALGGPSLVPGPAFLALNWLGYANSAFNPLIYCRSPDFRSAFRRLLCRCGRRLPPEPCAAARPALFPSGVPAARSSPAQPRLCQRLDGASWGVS
By IC50 is commonly meant the concentration that gives 50% inhibition. As for `CCN1CCOc2ccc(S(=O)(=O)N3CCC4(CC3)C[C@H](NC[C@H](O)COc3cccc(S(=O)(=O)NC)c3)CO4)cc21` [Compound 350, 3-((S)-3-((S)-8-(4-ethyl-3,4-dihydro-2H-benzo[b][1,4]oxazin-6-ylsulfonyl)-1-oxa-8-azaspiro[4.5]decan-3-ylamino)-2-hydroxypropoxy)-N-methylbenzenesulfonamide], the IC50 stood at 21.8 nM.
`CNS(=O)(=O)c1cccc(OC[C@@H](O)CNC2COC3(CCN(S(=O)(=O)c4ccc(-c5nn[nH]n5)cc4)CC3)C2)c1` (stereo partly drawn) [Compound 410, 3-((2S)-3-(8-(4-(2H-tetrazol-5-yl)phenylsulfonyl)-1-oxa-8-azaspiro[4.5]decan-3-ylamino)-2-hydroxypropoxy)-N-methylbenzenesulfonamide]: the concentration for half-maximal inhibition (IC50) worked out at 389 nM.
As for `CNS(=O)(=O)c1cccc(OC[C@@H](O)CN[C@H]2COC3(CCN(S(=O)(=O)c4cnc5[nH]cnc5c4C)CC3)C2)c1` [Compound 519, 3-((S)-2-hydroxy-3-((R)-8-(7-methyl-3H-imidazo[4,5-b]pyridin-6-ylsulfonyl)-1-oxa-8-azaspiro[4.5]decan-3-ylamino)propoxy)-N-methylbenzenesulfonamide], the IC50 turned out to be 68.4 nM.
The same measure for `CCNS(=O)(=O)c1cccc(OC[C@@H](O)CNC2COC3(CCN(S(=O)(=O)c4ccc(Cl)c5nonc45)CC3)C2)c1` (stereo partly drawn) [Compound 235, 3-((2S)-3-(8-(7-chlorobenzo[c][1,2,5]oxadiazol-4-ylsulfonyl)-1-oxa-8-azaspiro[4.5]decan-3-ylamino)-2-hydroxypropoxy)-N-ethylbenzenesulfonamide]: 108 nM.
Consider `CNS(=O)(=O)c1cccc(OC[C@@H](O)CN[C@H]2COC3(CCN(S(=O)(=O)c4cnc5c(F)cccc5c4O)CC3)C2)c1` [Compound 540, 3-((S)-3-((R)-8-(8-fluoro-4-hydroxyquinolin-3-ylsulfonyl)-1-oxa-8-azaspiro[4.5]decan-3-ylamino)-2-hydroxypropoxy)-N-methylbenzenesulfonamide], for which the 50% inhibitory concentration (IC50) is 32.7 nM.
The value for `CNS(=O)(=O)c1cccc(OC[C@@H](O)CNC2COC3(CCN(S(=O)(=O)c4ccc(NCCO)nc4)CC3)C2)c1` (stereo partly drawn) [Compound 428, 3-((2S)-2-hydroxy-3-(8-(6-(2-hydroxyethylamino)pyridin-3-ylsulfonyl)-1-oxa-8-azaspiro[4.5]decan-3-ylamino)propoxy)-N-methylbenzenesulfonamide] was 61.5 nM.
With `CNS(=O)(=O)c1cccc(OC[C@@H](O)CNC2COC3(CCN(S(=O)(=O)c4ccccc4OC)CC3)C2)c1` (stereo partly drawn) [Compound 398, 3-((2S)-2-hydroxy-3-(8-(2-methoxyphenylsulfonyl)-1-oxa-8-azaspiro[4.5]decan-3-ylamino)propoxy)-N-methylbenzenesulfonamide], the IC50 is 51.3 nM.
The value for `CNS(=O)(=O)c1cccc(OC[C@@H](O)CNC2COC3(CCN(S(=O)(=O)c4ccc5c(c4)CCO5)CC3)C2)c1` (stereo partly drawn) [Compound 330, 3-((2S)-3-(8-(2,3-dihydrobenzofuran-5-ylsulfonyl)-1-oxa-8-azaspiro[4.5]decan-3-ylamino)-2-hydroxypropoxy)-N-methylbenzenesulfonamide] was 36.7 nM; that for `CCc1cnc(N2CCC3(CC2)C[C@@H](NC[C@H](O)COc2cccc(S(=O)(=O)NC)c2)CO3)nc1` [Compound 571, 3-((S)-3-((R)-8-(5-ethylpyrimidin-2-yl)-1-oxa-8-azaspiro[4.5]decan-3-ylamino)-2-hydroxypropoxy)-N-methylbenzenesulfonamide] was 237 nM.
For `CCn1cc(S(=O)(=O)N2CCC3(CC2)C[C@@H](NC[C@H](O)COc2cccc(S(=O)(=O)NC)c2)CO3)c(=O)c2ccc(F)cc21` [Compound 546, 3-((S)-3-((R)-8-(1-ethyl-7-fluoro-4-oxo-1,4-dihydroquinolin-3-ylsulfonyl)-1-oxa-8-azaspiro[4.5]decan-3-ylamino)-2-hydroxypropoxy)-N-methylbenzenesulfonamide], the IC50 stood at 53 nM.
As to `CNS(=O)(=O)c1cccc(OC[C@@H](O)CNC2COC3(CCN(S(=O)(=O)c4cccc(Cl)c4C)CC3)C2)c1` (stereo partly drawn) [Compound 143, 3-((2S)-3-(8-(3-chloro-2-methylphenylsulfonyl)-1-oxa-8-azaspiro[4.5]decan-3-ylamino)-2-hydroxypropoxy)-N-methylbenzenesulfonamide], the concentration for half-maximal inhibition (IC50) worked out at 17.1 nM.
With `CNS(=O)(=O)c1cccc(OC[C@@H](O)CNC2COC3(CCN(S(=O)(=O)c4cc(F)ccc4Cl)CC3)C2)c1` (stereo partly drawn) [Compound 202, 3-((2S)-3-(8-(2-chloro-5-fluorophenylsulfonyl)-1-oxa-8-azaspiro[4.5]decan-3-ylamino)-2-hydroxypropoxy)-N-methylbenzenesulfonamide], the concentration for half-maximal inhibition (IC50) is 10.8 nM.
On to `CNS(=O)(=O)c1cccc(OC[C@@H](O)CNC2COC3(CCN(S(=O)(=O)c4cccc(-c5cscc5C)c4)CC3)C2)c1` (stereo partly drawn) [Compound 109, 3-((2S)-2-hydroxy-3-(8-(3-(4-methylthiophen-3-yl)phenylsulfonyl)-1-oxa-8-azaspiro[4.5]decan-3-ylamino)propoxy)-N-methylbenzenesulfonamide], for which the 50% inhibitory concentration (IC50) is 13.7 nM.
For `CNS(=O)(=O)c1cccc(OC[C@@H](O)CN[C@H]2COC3(CCN(S(=O)(=O)c4cnc5c(c4)COCC5)CC3)C2)c1` [Compound 488, 3-((S)-3-((R)-8-(7,8-dihydro-5H-pyrano[4,3-b]pyridin-3-ylsulfonyl)-1-oxa-8-azaspiro[4.5]decan-3-ylamino)-2-hydroxypropoxy)-N-methylbenzenesulfonamide], the IC50 turned out to be 38.1 nM.
As to `CNS(=O)(=O)c1cccc(OC[C@@H](O)CNC2COC3(CCN(S(=O)(=O)c4cccc(-c5cnc(OC)nc5)c4)CC3)C2)c1` (stereo partly drawn) [Compound 108, 3-((2S)-2-hydroxy-3-(8-(3-(2-methoxypyrimidin-5-yl)phenylsulfonyl)-1-oxa-8-azaspiro[4.5]decan-3-ylamino)propoxy)-N-methylbenzenesulfonamide], the IC50 was 13.4 nM.
In the case of `CCn1ccc(=O)c(S(=O)(=O)N2CCC3(CC2)C[C@@H](NC[C@H](O)COc2cccc(S(=O)(=O)NC)c2)CO3)c1` [Compound 588, 3-((S)-3-((R)-8-(1-ethyl-4-oxo-1,4-dihydropyridin-3-ylsulfonyl)-1-oxa-8-azaspiro[4.5]decan-3-ylamino)-2-hydroxypropoxy)-N-methylbenzenesulfonamide], the IC50 stood at 1960 nM.
For `CNS(=O)(=O)c1cccc(OC[C@@H](O)CNC2COC3(CCN(S(=O)(=O)c4cccc(-c5ccccn5)c4)CC3)C2)c1` (stereo partly drawn) [Compound 102, 3-((2S)-2-hydroxy-3-(8-(3-(pyridin-2-yl)phenylsulfonyl)-1-oxa-8-azaspiro[4.5]decan-3-ylamino)propoxy)-N-methylbenzenesulfonamide], the half-maximal inhibitory concentration (IC50) is 26 nM.
Turning to `CCNS(=O)(=O)c1cccc(OC[C@@H](O)CNC2COC3(CCN(S(=O)(=O)c4cccc(-c5ccc(S(N)(=O)=O)cc5)c4)CC3)C2)c1` (stereo partly drawn) [Compound 211, 3′-(3-((S)-3-(3-(N-ethylsulfamoyl)phenoxy)-2-hydroxypropylamino)-1-oxa-8-azaspiro[4.5]decan-8-ylsulfonyl)biphenyl-4-sulfonamide], the IC50 was determined as 16.5 nM.
Turning to `CNS(=O)(=O)c1cccc(OC[C@@H](O)CNC2COC3(CCN(S(=O)(=O)c4cccc(-c5cnn(Cc6ccccc6)c5)c4)CC3)C2)c1` (stereo partly drawn) [Compound 77, 3-((2S)-3-(8-(3-(1-benzyl-1H-pyrazol-4-yl)phenylsulfonyl)-1-oxa-8-azaspiro[4.5]decan-3-ylamino)-2-hydroxypropoxy)-N-methylbenzenesulfonamide], the IC50 was found to be 17.5 nM.
As to `CNS(=O)(=O)c1cccc(OC[C@@H](O)CNC2COC3(CCN(S(=O)(=O)c4cccc(-c5ccc(CNCCC(C)C)cc5)c4)CC3)C2)c1` (stereo partly drawn) [Compound 320, 3-((2S)-2-hydroxy-3-(8-(4′-((isopentylamino)methyl)biphenyl-3-ylsulfonyl)-1-oxa-8-azaspiro[4.5]decan-3-ylamino)propoxy)-N-methylbenzenesulfonamide], the half-maximal inhibitory concentration (IC50) worked out at 26.3 nM.
For `CN(C)S(=O)(=O)c1cccc(OC[C@@H](O)CNC2COC3(CCN(S(=O)(=O)c4cccc(Cl)c4)CC3)C2)c1` (stereo partly drawn) [Compound 246, 3-((2S)-3-(8-(3-chlorophenylsulfonyl)-1-oxa-8-azaspiro[4.5]decan-3-ylamino)-2-hydroxypropoxy)-N,N-dimethylbenzenesulfonamide], the concentration for half-maximal inhibition (IC50) turned out to be 38.6 nM.
For `CNS(=O)(=O)c1cccc(OC[C@@H](O)CNC2COC3(CCN(S(=O)(=O)c4ccc(C)c(-c5ccc(CN)cc5)c4)CC3)C2)c1` (stereo partly drawn) [Compound 376, 3-((2S)-3-(8-(4′-(aminomethyl)-6-methylbiphenyl-3-ylsulfonyl)-1-oxa-8-azaspiro[4.5]decan-3-ylamino)-2-hydroxypropoxy)-N-methylbenzenesulfonamide], the concentration for half-maximal inhibition (IC50) is 499 nM.
For the compound `CCNS(=O)(=O)c1cccc(OC[C@@H](O)CNC2COC3(CCN(S(=O)(=O)c4cccc(Cl)c4)CC3)C2)c1` (stereo partly drawn) [Compound 224, 3-((2S)-3-(8-(3-chlorophenylsulfonyl)-1-oxa-8-azaspiro[4.5]decan-3-ylamino)-2-hydroxypropoxy)-N-ethylbenzenesulfonamide], the concentration for half-maximal inhibition (IC50) was found to be 33.1 nM.
Consider `CNS(=O)(=O)c1cccc(OC[C@@H](O)CN[C@H]2COC3(CCN(S(=O)(=O)c4cnc5c(c4)OCCN5C)CC3)C2)c1` [Compound 481, 3-((S)-2-hydroxy-3-((R)-8-(4-methyl-3,4-dihydro-2H-pyrido[3,2-b][1,4]oxazin-7-ylsulfonyl)-1-oxa-8-azaspiro[4.5]decan-3-ylamino)propoxy)-N-methylbenzenesulfonamide], for which the IC50 came to 31.1 nM.
As to `Cn1cc(S(=O)(=O)N2CCC3(CC2)C[C@@H](NC[C@H](O)COc2cccc(S(N)(=O)=O)c2)CO3)c(=O)c2ccccc21` [Compound 549, 3-((S)-2-hydroxy-3-((R)-8-(1-methyl-4-oxo-1,4-dihydroquinolin-3-ylsulfonyl)-1-oxa-8-azaspiro[4.5]decan-3-ylamino)propoxy)benzenesulfonamide], the IC50 came to 140 nM.

The values are drawn from patent US11987588B2, “Modulators of the beta-3 adrenergic receptor useful for the treatment or prevention of heart failure and disorders related thereto” (Arena Pharmaceuticals, Inc., priority 2017, dated 2024).
